# Experiments:
# Assay in all cases: relative viability (nuclei count vs DMSO), 5 days (fraction); higher = more cells survive
# [1] = compound: O=c1[nH]cc(F)c(=O)[nH]1 [5-Fluorouracil] + N=C(N)NC(=N)NCCc1ccccc1 [Phenformin] (partner 250 µM)
# How it was run: (§1)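 Cells from lung cancer lines were seeded into 1536-well plates and, one day later, dosed by pin tool. Treatments were either a single drug or a fixed dose of an anchor drug with five library-drug doses (not always all listed) in √10 steps. After 5 days, nuclei were stained in a one-step fixation (final 0.05% Triton X-100, 1% formaldehyde, 1 ug/ml Hoechst) and counted on 4× images, and relative viability is the treated-to-vehicle nuclei ratio, as the median of duplicate plates.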
# [2] = compound: CN[C@@H]1C[C@H]2O[C@@](C)([C@@H]1OC)n1c3ccccc3c3c4c(c5c6ccccc6n2c5c31)C(=O)NC4 [Staurosporine] + Nc1ncn([C@H]2C[C@H](O)[C@@H](CO)O2)c(=O)n1 [Decitabine] (partner 2 µM)
# How it was run: as §1
# [3] = compound: O=c1[nH]cc(F)c(=O)[nH]1 [5-Fluorouracil] + CS(=O)(=O)N1CCN(Cc2cc3nc(-c4cccc5[nH]ncc45)nc(N4CCOCC4)c3s2)CC1 [Pictilisib] (partner 1 µM)
# How it was run: as §1
# Sulindac + Alpelisib = compound: CC1=C(CC(=O)O)c2cc(F)ccc2/C1=C\c1ccc([S+](C)[O-])cc1 [Sulindac] + Cc1nc(NC(=O)N2CCC[C@H]2C(N)=O)sc1-c1ccnc(C(C)(C)C(F)(F)F)c1 [Alpelisib] (partner 2 µM)
# How it was run: as §1
Cell Line,relative viability ([1]; first compound 0.02 µM),relative viability ([1]; first compound 0.2 µM),relative viability ([1]; first compound 0.6325 µM),relative viability ([1]; first compound 2 µM),relative viability ([2]; first compound 0.005 µM),relative viability ([2]; first compound 0.01581 µM),relative viability ([2]; first compound 0.05 µM),relative viability ([2]; first compound 0.1581 µM),relative viability ([2]; first compound 0.5 µM),relative viability ([3]; first compound 0.02 µM),relative viability ([3]; first compound 0.2 µM),relative viability ([3]; first compound 0.6325 µM),relative viability ([3]; first compound 2 µM),relative viability (Sulindac + Alpelisib; first compound 0.08 µM),relative viability (Sulindac + Alpelisib; first compound 0.253 µM),relative viability (Sulindac + Alpelisib; first compound 0.8 µM),relative viability (Sulindac + Alpelisib; first compound 2.53 µM),relative viability (Sulindac + Alpelisib; first compound 8 µM)
NCI-H522,0.584,0.637,0.682,0.678,0.502,0.678,0.643,0.617,0.564,,,,,,,,,
NCI-H1944,0.195,0.208,0.157,0.135,0.41,0.354,0.401,0.326,0.278,0.4,0.357,0.295,0.243,0.745,0.883,0.754,0.853,0.856
PC-14,0.572,0.682,0.558,0.585,0.22,0.137,0.0771,0.0491,0.0544,0.711,0.763,0.7,0.415,0.986,1.16,,1.13,1
NCI-H1650,0.396,0.444,0.273,0.279,0.397,0.533,0.341,0.168,0.124,0.587,0.537,0.428,0.306,,,,,
HCC-827,0.363,0.37,0.414,0.29,0.34,0.274,0.288,0.211,0.189,0.749,1.03,0.656,0.478,0.985,0.979,0.839,0.943,1.11
HCC-366,0.562,0.622,0.424,0.0966,0.348,,0.116,0.0285,0.0403,0.166,0.156,0.108,0.0793,0.527,0.471,0.407,0.527,0.622
HARA,0.426,0.559,0.455,0.27,0.479,0.334,0.249,0.15,0.179,0.562,0.518,0.321,0.373,1.07,0.952,,0.918,0.785
NCI-H441,0.927,0.979,0.553,0.387,0.226,0.192,0.238,0.129,0.0673,0.453,0.442,0.35,0.243,0.724,0.713,0.642,0.888,0.917
LXF-289,0.507,0.428,0.332,0.297,0.445,0.266,0.31,0.18,0.206,0.787,0.689,0.421,0.295,1.1,1.05,1.02,1.13,1.06
SK-LU-1,0.529,0.651,0.501,0.485,0.331,0.232,0.212,0.229,0.154,0.491,0.558,0.549,0.402,1.11,1.02,0.964,0.936,1.23
CAL-12T,0.616,0.614,0.37,0.425,,,,,,0.461,0.717,0.346,0.394,,1.37,0.999,1.31,1.54
COR-L 105,0.452,0.495,0.45,0.337,0.603,0.44,0.381,0.332,0.229,0.473,0.458,0.4,0.391,0.826,0.818,0.673,0.949,1.29
NCI-H2405,0.394,0.409,0.34,0.369,0.516,0.161,0.119,0.107,0.0998,0.566,0.536,0.303,0.463,0.725,0.794,0.713,0.796,0.917
NCI-H2228,0.408,0.249,0.259,0.249,,,,,,0.378,0.309,0.205,0.201,0.67,0.862,0.725,0.825,0.753
PC-3 [JPC-3],0.48,0.476,0.496,0.45,0.883,0.586,0.55,0.422,0.349,0.77,0.757,0.796,0.612,1.18,1.03,0.95,1.08,1.04
SW 1573,0.475,0.42,0.385,0.246,0.227,0.15,0.135,0.0749,0.067,,0.597,0.519,0.328,,0.706,,0.793,0.934
A549,0.172,0.258,0.153,0.0868,0.348,0.239,0.108,0.0369,0.0407,0.578,0.474,0.21,0.12,0.866,1.04,,0.758,0.87
NCI-H1648,,,,,0.43,0.223,0.28,0.313,0.287,,,,,,,,,
NCI-H1623,0.45,0.582,0.364,0.335,,,,,,,,,,,,,,
NCI-H1666,0.582,0.447,0.392,0.392,0.685,0.522,0.559,0.476,0.454,0.659,0.293,0.292,0.285,,1.09,0.808,0.866,0.99
NCI-H2087,0.49,0.555,0.438,0.333,0.28,0.141,0.094,0.0598,0.0694,0.912,0.916,0.607,0.602,1.16,1,1.23,1.17,1.04
NCI-H596,0.863,0.676,0.643,0.508,1.01,0.885,0.712,0.366,0.504,0.47,0.375,0.365,0.365,0.554,0.532,0.551,0.478,0.485

Cell Line,relative viability ([1]; first compound 0.02 µM),relative viability ([1]; first compound 0.2 µM),relative viability ([1]; first compound 0.6325 µM),relative viability ([1]; first compound 2 µM),relative viability ([2]; first compound 0.005 µM),relative viability ([2]; first compound 0.01581 µM),relative viability ([2]; first compound 0.05 µM),relative viability ([2]; first compound 0.1581 µM),relative viability ([2]; first compound 0.5 µM),relative viability ([3]; first compound 0.02 µM),relative viability ([3]; first compound 0.2 µM),relative viability ([3]; first compound 0.6325 µM),relative viability ([3]; first compound 2 µM),relative viability (Sulindac + Alpelisib; first compound 0.08 µM),relative viability (Sulindac + Alpelisib; first compound 0.253 µM),relative viability (Sulindac + Alpelisib; first compound 0.8 µM),relative viability (Sulindac + Alpelisib; first compound 2.53 µM),relative viability (Sulindac + Alpelisib; first compound 8 µM)
Calu-6,,,,,,,,,,1.08,0.948,0.836,0.485,1.06,1.09,0.774,1.08,1.23
LCLC-103H,0.339,0.327,0.258,0.249,0.753,0.484,0.34,0.299,0.278,0.61,0.598,0.536,0.447,1.06,1.07,0.892,0.869,1.09
HCC-15,0.563,0.532,0.332,0.27,0.436,,0.274,0.134,0.106,0.903,0.762,0.539,0.315,0.989,0.957,0.813,0.828,0.968
H3255,0.35,0.393,0.35,0.351,0.53,0.404,0.189,0.162,0.117,0.462,0.498,0.495,0.386,0.805,0.768,0.537,0.747,0.898
NCI-H1915,,0.34,0.355,0.361,0.268,0.227,0.186,0.126,0.0975,0.958,0.908,1.01,0.773,1.05,1.11,0.999,1.04,1.12
NCI-H1563,0.713,0.611,0.641,0.646,,,,,,0.662,0.601,0.647,0.671,0.915,0.853,0.86,0.884,0.923
NCI-H650,0.406,0.339,0.328,0.319,0.343,0.411,0.258,0.235,0.188,0.823,0.674,0.45,0.387,1.05,1.1,0.578,1.02,1.17
NCI-H2126,0.411,0.331,0.314,0.287,0.612,0.521,0.468,0.43,0.363,0.504,0.354,0.305,0.306,0.723,0.737,0.669,0.721,0.807
NCI-H838,0.544,0.609,0.364,0.245,0.368,0.271,0.181,0.139,0.141,0.414,0.402,0.306,0.269,1.22,0.983,0.769,0.975,1.08
NCI-H2342,0.619,0.72,0.559,0.635,0.772,0.687,0.513,0.553,0.372,,,,,,,,,
EMC-BAC-2,0.625,0.542,0.498,0.51,0.554,0.269,0.222,0.214,0.208,0.616,0.56,0.506,0.536,0.854,0.791,0.637,0.767,0.87
NCI-H1355,0.431,0.412,0.296,0.297,0.389,0.293,0.281,0.234,0.152,0.482,0.493,0.361,0.33,0.912,0.945,0.784,0.842,0.854
NCI-H2347,0.296,0.489,0.24,0.328,0.527,0.406,0.384,0.309,0.323,0.688,0.44,0.407,0.363,1.22,1.05,0.938,1.04,1.17
NCI-H1651,0.395,0.334,0.265,0.341,0.623,0.509,0.324,0.146,0.131,0.523,0.57,0.412,0.444,1.2,1.1,0.874,0.911,1.3
NCI-H1993,0.538,0.514,0.494,0.459,0.665,0.604,0.573,0.44,0.354,0.793,0.657,0.661,0.779,0.664,0.674,0.695,0.753,0.707
NCI-H1299,,,,,,,,,,0.953,0.634,0.474,0.248,1.23,1.19,0.624,1.2,1.08
ChaGo-K-1,0.526,0.476,0.433,0.348,0.641,,0.544,0.435,0.432,0.747,0.919,0.48,0.645,,,,,
SW 900,0.505,0.618,0.498,0.465,0.531,0.39,0.394,0.262,0.25,,,,,,,,,
NCI-H1703,,,,,,,,,,0.283,0.25,0.275,0.24,0.37,0.346,0.301,0.461,0.341
EBC-1,,,,,,,,,,0.319,0.33,0.46,0.329,0.993,0.944,0.848,0.79,0.887
IA-LM,,,,,,,,,,0.459,0.286,0.256,0.209,0.825,0.955,,0.977,1.13
